# Test results: patent US8937062B2, “Compositions and methods for treating, reducing, ameliorating, or preventing infections caused by antibacterial drug-resistant bacteria” (Bausch & Lomb Incorporated, priority 2007, dated 2015)
# Read-outs that look alike come from different tables or passages of the source.
# How the values were obtained:
# [1] = test system: S. pneumoniae Clinical Isolates; assay: In vitro activity against clinical isolates, sixth test, Table 7; assay type: cell-based; details: 78 isolates
# [2] = test system: APC-resistant Haemophilus influenza.; assay: MIC90, agar plate dilution method (NCCLS), Table 2; assay type: cell-based; details: for MIC90: Haemophilus
# Description: (§1) The MIC90 values for this test were determined by the agar plate dilution method according to the National Committee for Clinical Laboratory Standards (“NCCLS”).
# [3] = test system: GM-resistant S. aureus; assay: MIC90, agar plate dilution method (NCCLS), Table 2; assay type: cell-based; details: Staphylococcus aureus, 10 isolates
# Description: as §1
# [4] = test system: GM-resistant P. aeruginosa; assay: MIC90, agar plate dilution method (NCCLS), Table 2; assay type: cell-based; details: 10 isolates; for MIC90: Pseudomonas aeruginosa
# Description: as §1
# [5] = test system: PCG-resistant S. pneumoniae; assay: MIC90, agar plate dilution method (NCCLS), Table 2; assay type: cell-based; details: 10 isolates; for MIC90: Streptococcus pneumoniae
# Description: as §1
# [6] = test system: OFLX-resistant S. aureus; assay: MIC90, agar plate dilution method (NCCLS), Table 2; assay type: cell-based; details: Staphylococcus aureus, 10 isolates
# Description: as §1
# [7] = test system: OFLX-resistant Enterobacteriaceae; assay: MIC90, agar plate dilution method (NCCLS), Table 2; assay type: cell-based
# Description: as §1
# [8] = test system: methicillin-resistant S. aureus; assay: MIC90, Japanese Society of Chemotherapy guidelines (1993), Table 3; assay type: cell-based; details: Staphylococcus aureus, read-out: MIC90
# Description: (§2) In a second test, compounds having Formulae IV and V, their racemic mixture, and OFLX were tested in vitro against S. aureus strains that are resistant to methicillin or penicillin. The test was conducted according to the guidelines of the Japanese Society of Chemotherapy (1993).
# [9] = test system: penicillin-resistant S. aureus; assay: as above; assay type: cell-based; details: Staphylococcus aureus, read-out: MIC90
# Description: as §2
# [10] = test system: Gentamicin-resistant Pseudomonas aeruginosa; assay: In vitro anti-bacterial activity, resistant clinical isolates, fifth test, Table 6; assay type: cell-based; details: read-out: MIC90
# Source text: (§3) As disclosed above, most of these bacteria strains are also relevant to infections of the ear and upper respiratory tract.
# [11] = test system: Gentamicin-resistant Staphylococcus aureus; assay: as above; assay type: cell-based; details: read-out: MIC90
# Source text: as §3
# [12] = test system: Ofloxacin-resistant Staphylococcus aureus; assay: as above; assay type: cell-based; details: read-out: MIC90
# Source text: as §3
# [13] = test system: Penicillin-resistant Streptococcus pneumoniae; assay: as above; assay type: cell-based; details: read-out: MIC90
# Source text: as §3
# [14] = test system: Methicillin-Resistant S. aureus Isolates; assay: In vitro anti-bacterial activity, fourth test, Table 5; assay type: cell-based, Staphylococcus aureus; details: Staphylococcus aureus, read-out: MIC90
# Description: In a fourth test, the anti-bacterial activity of the compound having Formula IV was tested against some methicillin-resistant S. aureus bacteria strains and compared to the anti-bacterial activity of three commercially available antibiotics: nadifloxacin (“NDFX”), ofloxacin (“OFLX”), and sparfloxacin (“SPFX”).
# [15] = test system: Ofloxacin-resistant Enterobacteriaceae; assay: organism not typed; assay type: cell-based
# Source text: as §3
# [16] = test system: S. aureus Clinical Isolates; assay: In vitro activity against clinical isolates, sixth test, Table 7; assay type: cell-based; details: Staphylococcus aureus, 49 isolates
smiles,measurement,setting,value
"CC1COc2c(N3CCN(C)CC3)c(F)cc3c(=O)c(C(=O)O)cn1c23 (stereo not drawn) [OFLX, ofloxacin]",MIC90 Range,[1],1 to 2 µg/mL
same,MIC90,[1]; Streptococcus pneumoniae,1 µg/mL
same,MIC90 Range,"[2]; APC-resistant Haemophilus influenza., 10 isolates",≦0.06 μg/ml
same,MIC90,[2]; read-out: MIC90 Geometric Mean,≤ 0.06 µg/mL
same,MIC90,[2]; read-out: MIC90 Value,≤ 0.06 µg/mL
same,MIC90,[3]; read-out: MIC90 Geometric Mean,16 µg/mL
same,MIC90,[3]; read-out: MIC90 Value,> 128 µg/mL
same,MIC90 Range,[4],0.5 to 128 µg/mL
same,MIC90,[4]; read-out: MIC90 Geometric Mean,6.5 µg/mL
same,MIC90,[4]; read-out: MIC90 Value,64 µg/mL
same,MIC90 Range,[5],1 to 2 µg/mL
same,MIC90,[5]; read-out: MIC90 Geometric Mean,1.52 µg/mL
same,MIC90,[5]; read-out: MIC90 Value,2 µg/mL
same,MIC90,[6]; read-out: MIC90 Geometric Mean,104 µg/mL
same,MIC90,[6]; read-out: MIC90 Value,> 128 µg/mL
same,MIC90 Range,"[7]; OFLX-resistant Enterobacteriaceae, 10 isolates",8 to 64 µg/mL
same,MIC90,[7]; read-out: MIC90 Geometric Mean,21.1 µg/mL
same,MIC90,[7]; read-out: MIC90 Value,64 µg/mL
same,MIC90,"[8]; ATCC33591, S. aureus (ATCC 33591)",0.39 µg/mL
same,MIC90,"[8]; ATCC33592, S. aureus (ATCC 33592)",0.2 µg/mL
same,MIC90,"[8]; ATCC33593, S. aureus (ATCC 33593)",0.2 µg/mL
same,MIC90,[8]; S. aureus (No. 395),0.39 µg/mL
same,MIC90,[8]; S. aureus (No. 415),0.2 µg/mL
same,MIC90,[8]; S. aureus (No. 419),0.39 µg/mL
same,MIC90,[8]; S. aureus (No. 420),0.2 µg/mL
same,MIC90,[8]; S. aureus (No. 421),0.39 µg/mL
same,MIC90,"[9]; ATCC11632, S. aureus (ATCC 11632)",0.2 µg/mL
same,MIC90,"[9]; ATCC13301, S. aureus (ATCC 13301)",0.2 µg/mL
same,MIC90,[10],64 µg/mL
same,MIC90,[11],128 µg/mL
same,MIC90,[12],> 128 µg/mL
same,MIC90,[13],2 µg/mL
same,MIC90,"[14]; ATCC33591, Staphylococcus aureus (ATCC 33591)",0.05 µg/mL
same,MIC90,"[14]; ATCC33592, Staphylococcus aureus (ATCC 33592)",0.39 µg/mL
same,MIC90,"[14]; ATCC33593, Staphylococcus aureus (ATCC 33593)",0.2 µg/mL
same,MIC90,[14]; Staphylococcus aureus (No. 395),0.2 µg/mL
same,MIC90,[14]; Staphylococcus aureus (No. 415),0.78 µg/mL
same,MIC90,[14]; Staphylococcus aureus (No. 419),3.13 µg/mL
same,MIC90,[14]; Staphylococcus aureus (No. 420),1.56 µg/mL
same,MIC90,[14]; Staphylococcus aureus (No. 421),1.56 µg/mL
same,MIC90,[15],64 µg/mL
same,MIC90,[16],8 µg/mL
